Assay results published in patent publication US5721208A, “Glycopeptides a process for their preparation and their use” (Hoechst Aktiengesellschaft, priority 1991, dated 1998).

Columns and labels:
Staph. aureus SG 511 = test: Minimum bacteriostatic inhibitory concentration, Agar dilution method; format: cell-based
Strept. pyogenes 77 A = test: as above; format: cell-based
[1] = system: Peptostrept. anaerob. 932; test: as above; format: cell-based
Bact. fragilis 312 = test: as above; format: cell-based
Propioni acnes 6916 = test: as above; format: cell-based
Strept. faecium D = test: as above; format: cell-based
Staph. aureus 503 = test: as above; format: cell-based
Bact. fragilis 1313 = test: as above; format: cell-based
Propioni acnes 6922 = test: as above; format: cell-based
[2] = system: Clostridium perfringens 194; settings: Agar dilution method
Strept. pyogenes 308 A = test: Minimum bacteriostatic inhibitory concentration, Agar dilution method; format: cell-based
Bact. vulgatus 1446 = test: as above; format: cell-based
Staph. aureus 285 = test: as above; format: cell-based
Escherichia coli DC 2 = test: as above; format: cell-based
Bact. fragilis 960 = test: as above; format: cell-based
[3] = system: Clostridium tetani ATCC 1940650; settings: Agar dilution method

Row | Compound | Minimum bacteriostatic inhibitory concentration (Staph. aureus SG 511) | Minimum bacteriostatic inhibitory concentration (Strept. pyogenes 77 A) | Minimum bacteriostatic inhibitory concentration [1] | Minimum bacteriostatic inhibitory concentration (Bact. fragilis 312) | Minimum bacteriostatic inhibitory concentration (Propioni acnes 6916) | Minimum bacteriostatic inhibitory concentration (Strept. faecium D) | Minimum bacteriostatic inhibitory concentration (Staph. aureus 503) | Minimum bacteriostatic inhibitory concentration (Bact. fragilis 1313) | Minimum bacteriostatic inhibitory concentration (Propioni acnes 6922) | Minimum bacteriostatic inhibitory concentration [2] | Minimum bacteriostatic inhibitory concentration (Strept. pyogenes 308 A) | Minimum bacteriostatic inhibitory concentration (Bact. vulgatus 1446) | Minimum bacteriostatic inhibitory concentration (Staph. aureus 285) | Minimum bacteriostatic inhibitory concentration (Escherichia coli DC 2) | Minimum bacteriostatic inhibitory concentration (Bact. fragilis 960) | Minimum bacteriostatic inhibitory concentration [3]
1 | CC(C)CC(N)C(=O)NC1C(=O)NC(CC(N)=O)C(=O)NC2C(=O)NC3C(=O)NC(C(=O)NC(C(=O)O)c4cc(O)cc(O)c4-c4cc3ccc4O)C(OC3CC(C)(N)C(=O)C(C)O3)c3ccc(c(Cl)c3)Oc3cc2cc(c3O)Oc2ccc(cc2Cl)C1O (stereo not shown) [Desmethyl-desglucobalhimycin, desmethyl-desglucobalhimycin] | 0.2 micrograms per milliliter | 0.1 micrograms per milliliter | 0.2 micrograms per milliliter | 50 micrograms per milliliter | 0.2 micrograms per milliliter | 0.2 micrograms per milliliter | 0.1 micrograms per milliliter | 50 micrograms per milliliter | 0.1 micrograms per milliliter | 0.1 micrograms per milliliter | 0.1 micrograms per milliliter | > 100 micrograms per milliliter | 0.2 micrograms per milliliter | > 100 micrograms per milliliter | 25 micrograms per milliliter | –
2 | balhimycin R | 0.2 micrograms per milliliter | 0.2 micrograms per milliliter | 100 micrograms per milliliter | > 100 micrograms per milliliter | 6.2 micrograms per milliliter | 0.4 micrograms per milliliter | 0.2 micrograms per milliliter | > 100 micrograms per milliliter | 3.1 micrograms per milliliter | – | 0.2 micrograms per milliliter | > 100 micrograms per milliliter | 0.8 micrograms per milliliter | 50 micrograms per milliliter | > 100 micrograms per milliliter | 100 micrograms per milliliter
3 | balhimycin V | 0.4 micrograms per milliliter | 0.05 micrograms per milliliter | – | – | – | 0.2 micrograms per milliliter | 0.1 micrograms per milliliter | – | – | – | 0.05 micrograms per milliliter | – | 0.4 micrograms per milliliter | > 100 micrograms per milliliter | – | –
